Experimental data as given in the OligoGym collection.
After the bases stand the sugars from the 5' end (letter, count) and the backbone: PS all phosphorothioate, else s phosphorothioate and o phosphodiester by linkage. Methylation of C is not given here. e = 2'-O-(2-methoxyethyl) (MOE); k = constrained ethyl (cEt); d = 2'-deoxy (DNA); m = 2'-O-methyl

Target: HSD17B13
Details: ASO, HepaRG

Row | Sequence | target mRNA inhibition (1 µM) [%] | further results
1 | TGCTTACGACAGGTCA (sugars k3 d10 k3, PS) | 81 | target mRNA inhibition (0.02 µM): 0%; target mRNA inhibition (0.078 µM): 21%; target mRNA inhibition (0.313 µM): 57%; target mRNA inhibition (1.25 µM): 70%; target mRNA inhibition (5 µM): 90%
2 | AAATTGGCCTCCTGGG (sugars k3 d10 k3, PS) | 44 | –
3 | AAGGTTAGATTTCATC (sugars k3 d10 k3, PS) | 80 | target mRNA inhibition (0.02 µM): 1%; target mRNA inhibition (0.078 µM): 14%; target mRNA inhibition (0.313 µM): 60%; target mRNA inhibition (1.25 µM): 64%; target mRNA inhibition (5 µM): 78%
4 | ACAATCAGGAGTTGCA (sugars k3 d10 k3, PS) | 62 | –
5 | TGAGATTACCCCTGGC (sugars k3 d10 k3, PS) | 53 | –
6 | TATTATCAGGACTGAA (sugars k3 d10 k3, PS) | 63 | –
7 | TGTAATTGGCTCTTGA (sugars k3 d10 k3, PS) | 0 | –
8 | ACCGUTTTGGGCTAAT (sugars k3 d1 m1 d8 k3, PS) | 65 | –
9 | TATGUGATTGAGTTCT (sugars k3 d1 m1 d8 k3, PS) | 21 | –
10 | GAATCATTAAGCTTAG (sugars k3 d10 k3, PS) | 63 | –
11 | AAACCTTCATGCTAGT (sugars k3 d10 k3, PS) | 27 | –
12 | AGTTAGAATAGTCTTC (sugars k3 d10 k3, PS) | 67 | –
13 | ATATACATCAACTCCT (sugars k3 d10 k3, PS) | 43 | –
14 | TAAGGATCATTGCAGA (sugars k3 d10 k3, PS) | 0 | –
15 | TGTAGTGGGAGTCGGA (sugars k3 d9 k3 e1, PS) | 53 | –
16 | TCTTAAGATACCCAGG (sugars k3 d1 m1 d8 k3, PS) | 51 | –
17 | AGTTTCCTCCACACCG (sugars k3 d10 k3, PS) | 28 | –
18 | TTGAGATAAAGCTGCC (sugars k3 d10 k3, PS) | 49 | –
19 | TTATAACTACAAGAGG (sugars k3 d9 k3 e1, PS) | 43 | –
20 | GTCATTTAGAATACGC (sugars k3 d10 k3, PS) | 46 | –
21 | TTTCTTATTGGTAAGT (sugars k3 d10 k3, PS) | 44 | –
22 | TGCAGCATTGATTCGA (sugars k3 d9 k3 e1, PS) | 52 | –
23 | AGGTAGCTTTTGTCCA (sugars k3 d9 k3 e1, PS) | 58 | –
24 | AGATAAAGCTGCCTGC (sugars k3 d1 m1 d8 k3, PS) | 35 | –
25 | CAATGAGATTACCCCT (sugars k3 d10 k3, PS) | 16 | –
26 | GATCATTGCAGAAAGA (sugars k3 d10 k3, PS) | 23 | –
27 | CATTTTTAATACGACT (sugars k3 d10 k3, PS) | 57 | –

Row | Sequence | target mRNA inhibition (1 µM) [%] | further results
28 | AAACCTTGAATGAGTG (sugars k3 d10 k3, PS) | 37 | –
29 | GGTCACCTTTCATAAT (sugars k3 d9 k3 e1, PS) | 49 | –
30 | ATTCATAAACATAGGC (sugars k3 d10 k3, PS) | 36 | –
31 | TCATAGTGGACTTCAT (sugars kkdddddddddkekek, PS) | 48 | –
32 | GGTGGTAACGGTGATC (sugars k3 d10 k3, PS) | 31 | –
33 | CAGCATCAAGACATTC (sugars kkdddddddddkekek, PS) | 62 | –
34 | ATAGTTATCTTCTCAC (sugars k3 d10 k3, PS) | 48 | –
35 | CTACATGACCTGGGTC (sugars k3 d10 k3, PS) | 59 | –
36 | TTGAGTTCTCCACTGC (sugars kkdddddddddkekek, PS) | 20 | –
37 | TTATAGACTGGGTAGG (sugars k3 d10 k3, PS) | 51 | –
38 | CGCCTAAAGGAGATCT (sugars k3 d10 k3, PS) | 59 | –
39 | CTAAATTACTCCGTTC (sugars k3 d10 k3, PS) | 20 | –
40 | TGTAATAGCCAGTACA (sugars kkdddddddddkekek, PS) | 45 | –
41 | GATAATATGTGACTTG (sugars k3 d10 k3, PS) | 68 | –
42 | GATGAGTAGGCAACTG (sugars k3 d10 k3, PS) | 42 | –
43 | GATTAAGCAGAATTGT (sugars kkdddddddddkekek, PS) | 31 | –
44 | TTCTGTGGCATGGCTA (sugars kkdddddddddkekek, PS) | 50 | –
45 | ACATAGACATGTGTTC (sugars k3 d10 k3, PS) | 35 | –
46 | TAAACATAGGCTTAGT (sugars k3 d10 k3, PS) | 34 | –
47 | GTAAATGATGGCAGGA (sugars k3 d10 k3, PS) | 34 | –
48 | CATCTTAAGATACCCA (sugars k3 d10 k3, PS) | 76 | target mRNA inhibition (0.02 µM): 0%; target mRNA inhibition (0.078 µM): 23%; target mRNA inhibition (0.313 µM): 46%; target mRNA inhibition (1.25 µM): 75%; target mRNA inhibition (5 µM): 90%
49 | GATCTCTTAGCTGTGC (sugars k3 d10 k3, PS) | 64 | –
50 | TAGTAATTGCTATAGT (sugars k3 d10 k3, PS) | 7 | –
51 | GCATCTTAAGATACCC (sugars k3 d1 m1 d8 k3, PS) | 65 | –
52 | CACAUATGTGAAGAGC (sugars k3 d1 m1 d8 k3, PS) | 65 | –
53 | AAAGTTAGTTGGGCGA (sugars k3 d10 k3, PS) | 26 | –
